According to article PMC5811830 (Journal of Clinical Pharmacology, 2017):
Where two headings read alike, the source gives them in different places.

Tests used:
[1] = type: in vivo, human; conditions: for Cmax geometric least-squares mean ratio (90%CI) (test/reference): with vs without ketoconazole
[2] = type: in vivo, human; conditions: for AUC0-264 geometric least-squares mean ratio (90%CI) (test/reference) / Cmax geometric least-squares mean ratio (90%CI) (test/reference): with vs without clarithromycin
[3] = type: in vivo, human; conditions: for Reduction of Cmax in the presence of rifampin: ixazomib 4 mg oral, rifampin 600 mg once daily; for AUC0-last geometric least-squares mean ratio (90%CI) (test/reference) / Cmax geometric least-squares mean ratio (90%CI) (test/reference): with vs without rifampin
[4] = Treatment-emergent adverse events and on-study deaths in the DDI study arms; type: in vivo, human
Period effect analysis = type: in vivo, human; conditions: pooled ketoconazole DDI, food effect and relative bioavailability arms
CYP3A4 = conditions: higher than clinical concentrations; cited from earlier work
CYP1A2 = conditions: higher than clinical concentrations; cited from earlier work
CYP2B6 = conditions: higher than clinical concentrations; cited from earlier work
CYP2C8 = conditions: higher than clinical concentrations; cited from earlier work
CYP2D6 = conditions: higher than clinical concentrations; cited from earlier work
CYP2C19 = conditions: higher than clinical concentrations; cited from earlier work
CYP2C9 = conditions: higher than clinical concentrations; cited from earlier work
[5] = humans; cited from earlier work
[6] = clinically relevant exposures; cited from earlier work
P‐glycoprotein (P‐gp) = conditions: in vitro data; cited from earlier work
intestinal P‐gp = conditions: multiple doses of rifampin, duodenal biopsies, Western blotting; cited from earlier work
[7] = cited from earlier work
[8] = test condition: ixazomib 4 mg oral day 8 with rifampin 600 mg once daily, N = 16
[9] = Clarithromycin arm (N = 21), cycle 1 only
[10] = Rifampin arm (N = 38), test and reference groups

CC(C)C[C@H](NC(=O)CNC(=O)c1cc(Cl)ccc1Cl)B(O)O [ixazomib]
Geometric mean AUC0-264, h·ng/mL (%CV), not corrected for the period effect ([1]; test condition: ixazomib 2.5 mg oral, period 2 with ketoconazole): 1150 (46) h·ng/mL
Cmax geometric least-squares mean ratio (90%CI) (test/reference) [1]: 1.01
Cmax geometric least-squares mean ratio (90%CI) (test/reference) ([1]; listed as Ixazomib): 1.01 (0.78‐1.30)
Increase in AUC with the strong CYP3A inhibitors ketoconazole and clarithromycin ([2]; observed, ketoconazole and clarithromycin DDI studies): ≤ 11%
AUC0-264 geometric least-squares mean ratio (90%CI) (test/reference) [2]: 1.11
Cmax geometric least-squares mean ratio (90%CI) (test/reference) [2]: 0.96
AUC0-264 geometric least-squares mean ratio (90%CI) (test/reference) ([2]; listed as Ixazomib): 1.11 (0.86‐1.43)
Cmax geometric least-squares mean ratio (90%CI) (test/reference) ([2]; listed as Ixazomib): 0.96 (0.67‐1.36)
Reduction of Cmax in the presence of rifampin [3]: 54%
Reduction of Cmax in the presence of rifampin ([3]; listed as Ixazomib): approximately 54%
Geometric mean AUC0-last, h·ng/mL (%CV) [3, 8]: 232 (50) h·ng/mL
Geometric mean Cmax, ng/mL (%CV) [3, 8]: 25.7 (50) ng/mL
Median Tmax, h (range) [3, 8]: 1.45 (0.5‐4.12) h
AUC0-last geometric least-squares mean ratio (90%CI) (test/reference) [3]: 0.26
Cmax geometric least-squares mean ratio (90%CI) (test/reference) [3]: 0.46
AUC0-last geometric least-squares mean ratio (90%CI) (test/reference) ([3]; listed as Ixazomib): 0.26 (0.18‐0.37)
Cmax geometric least-squares mean ratio (90%CI) (test/reference) ([3]; listed as Ixazomib): 0.46 (0.29‐0.73)
Any AE, n (%) [4, 9]: 16 (76) n (%)
Any drug-related AE, n (%) [4, 9]: 4 (19) n (%)
Any drug-related grade ≥3 AE, n (%) [4, 9]: 0 n (%)
Any drug-related serious AE, n (%) [4, 9]: 0 n (%)
Any grade ≥3 AE, n (%) [4, 9]: 2 (10) n (%)
Any serious AE, n (%) [4, 9]: 2 (10) n (%)
On-study deaths, n (%) [4, 9]: 0 n (%)
AE leading to discontinuation, n (%) ([4]; Ketoconazole arm (N = 29)): 8 (28) n (%)
Any AE, n (%) ([4]; Ketoconazole arm (N = 29)): 29 (100) n (%)
Any drug-related AE, n (%) ([4]; Ketoconazole arm (N = 29)): 27 (93) n (%)
Any drug-related grade ≥3 AE, n (%) ([4]; Ketoconazole arm (N = 29)): 10 (34) n (%)
Any drug-related serious AE, n (%) ([4]; Ketoconazole arm (N = 29)): 3 (10) n (%)
Any grade ≥3 AE, n (%) ([4]; Ketoconazole arm (N = 29)): 18 (62) n (%)
Any serious AE, n (%) ([4]; Ketoconazole arm (N = 29)): 12 (41) n (%)
On-study deaths, n (%) ([4]; Ketoconazole arm (N = 29)): 2 (7) n (%)
AE leading to discontinuation, n (%) [4, 10]: 4 (11) n (%)
Any AE, n (%) [4, 10]: 37 (97) n (%)
Any drug-related AE, n (%) [4, 10]: 32 (84) n (%)
Any drug-related grade ≥3 AE, n (%) [4, 10]: 7 (18) n (%)
Any drug-related serious AE, n (%) [4, 10]: 2 (5) n (%)
Any grade ≥3 AE, n (%) [4, 10]: 15 (39) n (%)
Any serious AE, n (%) [4, 10]: 7 (18) n (%)
On-study deaths, n (%) [4, 10]: 1 (3) n (%)
AE leading to discontinuation, n (%) ([4]; Total (N = 88)): 13 (15) n (%)
Any AE, n (%) ([4]; Total (N = 88)): 82 (93) n (%)
Any drug-related AE, n (%) ([4]; Total (N = 88)): 63 (72) n (%)
Any drug-related grade ≥3 AE, n (%) ([4]; Total (N = 88)): 17 (19) n (%)
Any drug-related serious AE, n (%) ([4]; Total (N = 88)): 5 (6) n (%)
Any grade ≥3 AE, n (%) ([4]; Total (N = 88)): 35 (40) n (%)
Any serious AE, n (%) ([4]; Total (N = 88)): 21 (24) n (%)
On-study deaths, n (%) ([4]; Total (N = 88)): 3 (3) n (%)
Patients with a study drug-related AE ([4]; across the 3 DDI study arms (N = 88)): 72%
Patients with study drug-related grade 3 AEs ([4]; across the 3 study arms, 17 patients): 19%
Patients with grade ≥3 AEs ([4]; across the 3 study arms, 35 patients): 40%
Study drug-related grade 3 AE: thrombocytopenia ([4]; across the 3 study arms, n = 2): 2%
Study drug-related grade 3 AE: vomiting ([4]; across the 3 study arms, n = 2): 2%
Study drug-related grade 3 AE: diarrhea ([4]; across the 3 study arms, n = 3): 3%
Study drug-related grade 3 AE: nausea ([4]; across the 3 study arms, n = 3): 3%
Study drug-related grade 3 AE: fatigue ([4]; across the 3 study arms, n = 9): 10%
Study drug-related AE: weight loss ([4]; across the 3 study arms, n = 10): 11%
Study drug-related AE: dehydration ([4]; across the 3 study arms, n = 12): 14%
Study drug-related AE: asthenia ([4]; across the 3 study arms, n = 13): 15%
Study drug-related AE: decreased appetite ([4]; across the 3 study arms, n = 15): 17%
Magnitude of the period effect (period 2 AUC vs period 1 AUC), pooled analysis (Period effect analysis): 1.91 fold
Estimated relative contribution of 3A4 to metabolism (CYP3A4): 42%
Estimated relative contribution of 1A2 to metabolism (CYP1A2): 26%
Estimated relative contribution of 2B6 to metabolism (CYP2B6): 16%
Estimated relative contribution of 2C8 to metabolism (CYP2C8): 6%
Estimated relative contribution of 2D6 to metabolism (CYP2D6): 5%
Estimated relative contribution of 2C19 to metabolism (CYP2C19): 5%
Estimated relative contribution of 2C9 to metabolism (CYP2C9): < 1%
Orally administered radiolabeled ixazomib recovered in urine [5]: 62%
Urinary excretion representing the parent drug [5]: < 3.5%
Effect on the QTc interval [6]: does not prolong the QTc interval
P-gp substrate status (P‐glycoprotein (P‐gp)): low‐affinity substrate

CO[C@H]1/C=C/O[C@@]2(C)Oc3c(C)c(O)c4c(O)c(c(/C=N/N5CCN(C)CC5)c(O)c4c3C2=O)NC(=O)/C(C)=C\C=C\[C@H](C)[C@H](O)[C@@H](C)[C@@H](O)[C@@H](C)[C@H](OC(C)=O)[C@@H]1C [rifampin]
Assumed increase in intestinal P-gp activity (intestinal P‐gp): 4 fold

COc1cc2nccc(Oc3ccc(NC(=O)Nc4cc(C)on4)c(Cl)c3)c2cc1OC [tivozanib]
Effect of steady-state ketoconazole on tivozanib AUC ([7]; ketoconazole 400 mg/day): did not alter
Decrease in tivozanib AUC with rifampin ([7]; rifampin 600 mg/day): 53%
